Laboratory results as given in patent EP0635577B1, “Screen for inhibitors of melanin biosynthesis” (BASF AKTIENGESELLSCHAFT, priority 1993, dated 1995).

Assays:
[1] = tested on: wild-type strain M. grisea
[2] = tested on: Cladosporium cucumerinum; test: melanin biosynthesis inhibition screen, disk diffusion assay on solidified culture; format: cell-based; details: for Observation: effect on growth and pigmentation in words; for Observation: inhibits, radius cleared: growth inhibition zone
Protocol: Potato dextrose medium (PDM) for the screening test is prepared by melting
The mixture is autoclaved as 150 ml aliquots at 121°C for 25 minutes.
A chloramphenicol stock solution is prepared to contain 15 mg chloramphenicol per mL absolute ethanol and is stored at -20°C.
Conidia from Cladosporium cucumerinum, 10^7/mL in 0.03% Tween 20™, retain their viability for at least 12 weeks of storage in 1.8 ml cryovials at -85°C. Inoculum for running the screen are raised once every three months and stored without a cryoprotectant at the working concentration of 10^7 conidia/mL.
Fresh inoculum suspensions are prepared from conidial suspensions stored at -85°C. A cryovial is thawed by hand-heat, and 200 uL spread on the surface of PDA in 9 cm Petri dishes. Plates are placed in a resin box (to prevent fungal escape) and incubated at room temperature, 40 cm below laboratory fluorescent lights. Seven days later conidia are collected. Five mL of 0.03% Tween 20™ is added to each plate, and the conidia are released by rubbing the mycelium with a glass rod. The suspension is passed through a layer of sterile Miracloth™ and the concentration adjusted to 10^7 conidia/mL in 0.03% Tween 20™ using a haemocytometer. Aliquots of 1 mL are dispensed into cryovials and placed in a polystyrene holder to freeze slowly to -85°C.
For the test, 150 mL of PDM is cooled to 35°C, and 0.1 mL of chloramphenicol stock solution is added by gentle swirling. A vial of C. cucumerinum conidial suspension (10^7 conidia/ml in Tween 20™) thawed with hand-heat is mixed into the growth medium using gentle swirling. The mixture is poured immediately into a Biotray, and the agar is allowed to solidify.
Test compounds are applied to 0.63 cm (¼ inch) filter disks. Each test includes a positive control, 200 ng tricyclazole in 20% dimethyl sulphoxide (DMSO). The plate is incubated at room-temperature (∼23°C) 40 cm below laboratory fluorescent lights. The plate is read 40 hours later. […] The Biotrays are autoclaved before disposal.
The compounds are applied as 20 ul droplets from a 1 mg/ml stock solution.

[3] = C. cucumerinum Antibiotic Panel, screen of Example 1
[4] = Antifungal Panel, 20 ul droplets from a 1 mg/ml stock solution on filter disk, read 40 hours later

Compound | Observation [2, 3] | further results
Cc1cccc2sc3nncn3c12 [tricyclazole] |  | inhibition of penetration ([1]; 15 ng in 1.5% acetone, onion epidermal pieces, 25°C for 24 hours): 100%; penetration of freshly harvested onion epidermis by wild-type M. grisea ([1]; in the presence of the inhibitor, about 90 to 95% of germinating wild-type conidia penetrate without it): no penetration
Monicamycin | no effect on growth or pigmentation | 
Neohumidin | no effect on growth or pigmentation | 
Neomycin Sulfate | no effect on growth or pigmentation | 
Noconazole |  | Observation: inhibits, radius cleared [2, 4]: inhibits, 8 mm radius cleared
Protomycin/Streptimidone | no effect on growth or pigmentation | 
Ristocedin | no effect on growth or pigmentation | 
Sulfocidin |  | Observation: fungal thinning, radius [2, 3]: fungal thinning, 5 mm radius
Tetrahydro Spiramycin Base | no effect on growth or pigmentation | 
Thioaurin |  | Observation: inhibits, radius cleared [2, 3]: inhibits, 16 mm radius cleared
Trichomycin | no effect on growth or pigmentation | 
Tunicamycin |  | Observation: inhibits, radius cleared [2, 4]: inhibits, 22 mm radius cleared
